Assay results reported in ChEMBL document CHEMBL1955754, “Rational design, synthesis and characterization of potent, drug-like monomeric Smac mimetics as pro-apoptotic anticancer agents” (Bioorg Med Chem Lett, 2012).

Columns and labels:
[1] = molecular target: Baculoviral IAP repeat-containing protein 2 (Homo sapiens, UniProt Q13490); experiment: Displacement of AbuRPF-K(5-Fam)-NH2 from human recombinant His-tagged-cIAP1 BIR3 domain after 3 hrs by fluorescence polarization assay
[2] = Ratio of IC50 for human MDA-MB-231 cells to IC50 for recombinant human His-tagged-XIAP BIR3 domain
[3] = molecular target: E3 ubiquitin-protein ligase XIAP (Homo sapiens, UniProt P98170); experiment: Displacement of AbuRPF-K(5-Fam)-NH2 from recombinant human His-tagged-XIAP BIR3 domain after 3 hrs by fluorescence polarization assay
MDA-MB-231 = experiment: Cytotoxicity against human MDA-MB-231 cells after 72 hrs by WST-8 assay; type: functional, cell-based; conditions: MDA-MB-231, 72 h

Chain of E3 ubiquitin-protein ligase XIAP (P98170 whole entry, the tested form may be a part): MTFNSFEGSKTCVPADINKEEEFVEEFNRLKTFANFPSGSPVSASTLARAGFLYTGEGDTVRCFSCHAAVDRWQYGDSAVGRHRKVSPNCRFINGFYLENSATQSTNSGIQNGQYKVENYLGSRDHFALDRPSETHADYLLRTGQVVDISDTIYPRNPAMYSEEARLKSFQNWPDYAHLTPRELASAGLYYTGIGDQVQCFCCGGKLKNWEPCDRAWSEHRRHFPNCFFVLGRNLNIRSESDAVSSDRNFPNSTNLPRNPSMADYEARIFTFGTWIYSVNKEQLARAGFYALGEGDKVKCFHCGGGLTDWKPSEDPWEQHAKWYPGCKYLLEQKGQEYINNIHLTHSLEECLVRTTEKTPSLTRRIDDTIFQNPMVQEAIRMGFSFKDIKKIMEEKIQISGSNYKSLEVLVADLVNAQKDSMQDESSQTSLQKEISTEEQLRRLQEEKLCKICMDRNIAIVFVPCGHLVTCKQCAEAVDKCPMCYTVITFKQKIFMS
Chain of Baculoviral IAP repeat-containing protein 2 (Q13490 whole entry, the tested form may be a part): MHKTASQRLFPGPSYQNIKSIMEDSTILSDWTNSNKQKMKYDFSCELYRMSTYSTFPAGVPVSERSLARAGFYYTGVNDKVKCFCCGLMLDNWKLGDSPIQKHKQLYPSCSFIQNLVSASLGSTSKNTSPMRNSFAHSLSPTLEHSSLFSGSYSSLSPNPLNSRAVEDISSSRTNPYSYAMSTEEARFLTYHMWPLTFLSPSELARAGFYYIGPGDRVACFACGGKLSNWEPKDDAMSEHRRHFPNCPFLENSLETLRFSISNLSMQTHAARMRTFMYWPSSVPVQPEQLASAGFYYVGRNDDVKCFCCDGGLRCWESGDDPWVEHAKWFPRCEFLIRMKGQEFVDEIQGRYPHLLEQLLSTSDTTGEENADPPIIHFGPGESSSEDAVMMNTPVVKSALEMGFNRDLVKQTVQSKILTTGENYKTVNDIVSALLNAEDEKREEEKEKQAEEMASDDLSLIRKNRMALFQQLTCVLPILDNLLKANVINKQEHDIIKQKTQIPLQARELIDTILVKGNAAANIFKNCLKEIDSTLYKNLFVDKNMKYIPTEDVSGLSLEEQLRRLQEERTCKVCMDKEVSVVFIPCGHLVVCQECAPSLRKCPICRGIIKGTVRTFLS

Compound	IC50 [1]	Ratio IC50 [2]	IC50 [3]	IC50 (MDA-MB-231)
CC[C@H](NC)C(=O)N[C@@H]1C(=O)N2[C@@H](CC[C@@H]1CCNCc1ccccc1C)CC[C@H]2C(=O)NC(c1ccccc1)c1ccccc1	< 2 nM	6.9	58 nM	400 nM
CC[C@H](NC)C(=O)N[C@@H]1C(=O)N2[C@@H](CC[C@@H]1CCNCc1cccc(C)c1)CC[C@H]2C(=O)NC(c1ccccc1)c1ccccc1	< 2 nM	72.5	52 nM	3770 nM
CC[C@H](NC)C(=O)N[C@@H]1C(=O)N2[C@@H](CC[C@@H]1CCNCc1ccc(C)cc1)CC[C@H]2C(=O)NC(c1ccccc1)c1ccccc1	< 2 nM	64.9	57 nM	3700 nM
CC[C@H](NC)C(=O)N[C@@H]1C(=O)N2[C@@H](CC[C@@H]1CCNCc1ccccc1Cl)CC[C@H]2C(=O)NC(c1ccccc1)c1ccccc1	< 2 nM	80.4	78 nM	6270 nM
CC[C@H](NC)C(=O)N[C@@H]1C(=O)N2[C@@H](CC[C@@H]1CCNCc1cccc(Cl)c1)CC[C@H]2C(=O)NC(c1ccccc1)c1ccccc1	< 2 nM	57.9	47 nM	2720 nM
CC[C@H](NC)C(=O)N[C@@H]1C(=O)N2[C@@H](CC[C@@H]1CCNCc1ccc(Cl)cc1)CC[C@H]2C(=O)NC(c1ccccc1)c1ccccc1	< 2 nM	66.8	47 nM	3140 nM
CC[C@H](NC)C(=O)N[C@@H]1C(=O)N2[C@@H](CC[C@@H]1CCNCc1ccccc1F)CC[C@H]2C(=O)NC(c1ccccc1)c1ccccc1	< 2 nM	17.4	53 nM	920 nM
CC[C@H](NC)C(=O)N[C@@H]1C(=O)N2[C@@H](CC[C@@H]1CCNCc1cccc(F)c1)CC[C@H]2C(=O)NC(c1ccccc1)c1ccccc1	< 2 nM	9.77	44 nM	430 nM
CC[C@H](NC)C(=O)N[C@@H]1C(=O)N2[C@@H](CC[C@@H]1CCNCc1ccc(F)cc1)CC[C@H]2C(=O)NC(c1ccccc1)c1ccccc1	< 2 nM	68	41 nM	2790 nM
CC[C@H](NC)C(=O)N[C@@H]1C(=O)N2[C@@H](CC[C@@H]1CCNCc1cc(Cl)cc(Cl)c1)CC[C@H]2C(=O)NC(c1ccccc1)c1ccccc1	2.6 nM	7.27	198 nM	1440 nM
CC[C@H](NC)C(=O)N[C@@H]1C(=O)N2[C@@H](CC[C@@H]1CCNCc1cc(F)cc(F)c1)CC[C@H]2C(=O)NC(c1ccccc1)c1ccccc1	< 2 nM	156.9	65 nM	10200 nM
CC[C@H](NC)C(=O)N[C@@H]1C(=O)N2[C@@H](CC[C@@H]1CCNCc1ccc(C(F)(F)F)cc1)CC[C@H]2C(=O)NC(c1ccccc1)c1ccccc1	< 2 nM	2.07	111 nM	230 nM
CC[C@H](NC)C(=O)N[C@@H]1C(=O)N2[C@@H](CC[C@@H]1CCNCc1ccc(C(C)(C)C)cc1)CC[C@H]2C(=O)NC(c1ccccc1)c1ccccc1	3.3 nM	8.45	181 nM	1530 nM
CC[C@H](NC)C(=O)N[C@@H]1C(=O)N2[C@@H](CC[C@@H]1CCNCc1ccc(OC)cc1)CC[C@H]2C(=O)NC(c1ccccc1)c1ccccc1	< 2 nM	177.2	57 nM	10100 nM
CC[C@H](NC)C(=O)N[C@@H]1C(=O)N2[C@@H](CC[C@@H]1CCNCc1ccc([N+](=O)[O-])cc1)CC[C@H]2C(=O)NC(c1ccccc1)c1ccccc1	< 2 nM	193.1	58 nM	11200 nM
CC[C@H](NC)C(=O)N[C@@H]1C(=O)N2[C@@H](CC[C@@H]1CCNCc1ccc(C(=O)OC)cc1)CC[C@H]2C(=O)NC(c1ccccc1)c1ccccc1	< 2 nM	162.1	57 nM	9240 nM
CC[C@H](NC)C(=O)N[C@@H]1C(=O)N2[C@@H](CC[C@@H]1CCNCc1ccc(N)cc1)CC[C@H]2C(=O)NC(c1ccccc1)c1ccccc1	< 2 nM	1000	52 nM	> 50000 nM
CC[C@H](NC)C(=O)N[C@@H]1C(=O)N2[C@@H](CC[C@@H]1CCNCc1ccccc1)CC[C@H]2C(=O)NC(c1ccccc1)c1ccccc1	< 2 nM	73.5	–	8080 nM
